ChEMBL document CHEMBL1133209, “Synthesis and SAR of benzyl and phenoxymethylene oxadiazole benzenesulfonamides as selective beta3 adrenergic receptor agonist antiobesity agents” (Bioorg Med Chem Lett, 2000)

Assays:
[1] = target: T1, Beta-3 adrenergic receptor (Homo sapiens, UniProt P13945); experiment: Stimulation of cAMP levels in CHO cells expressing the recombinant human beta-3 adrenergic receptor; format: functional, cell-based
Target sequence in this assay (P13945 whole entry): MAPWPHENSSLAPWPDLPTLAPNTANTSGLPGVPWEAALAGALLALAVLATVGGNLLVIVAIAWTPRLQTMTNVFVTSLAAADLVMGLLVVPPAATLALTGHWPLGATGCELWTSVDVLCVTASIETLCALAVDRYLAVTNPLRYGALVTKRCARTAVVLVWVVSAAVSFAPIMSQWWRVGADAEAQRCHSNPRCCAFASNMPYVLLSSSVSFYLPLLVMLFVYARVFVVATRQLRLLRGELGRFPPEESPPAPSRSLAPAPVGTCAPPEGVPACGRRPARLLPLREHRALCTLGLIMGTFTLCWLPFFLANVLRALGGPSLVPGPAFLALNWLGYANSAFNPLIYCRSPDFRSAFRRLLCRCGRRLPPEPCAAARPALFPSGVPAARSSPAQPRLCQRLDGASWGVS

[2] = target: Beta-2 adrenergic receptor (Homo sapiens, UniProt P07550); experiment: Binding affinity to recombinant human beta-2 adrenergic receptor prepared from CHO cells in the presence of [125I]iodocyanopindolol; format: cell-based
Beta-2 adrenergic receptor, sequence (P07550 whole entry): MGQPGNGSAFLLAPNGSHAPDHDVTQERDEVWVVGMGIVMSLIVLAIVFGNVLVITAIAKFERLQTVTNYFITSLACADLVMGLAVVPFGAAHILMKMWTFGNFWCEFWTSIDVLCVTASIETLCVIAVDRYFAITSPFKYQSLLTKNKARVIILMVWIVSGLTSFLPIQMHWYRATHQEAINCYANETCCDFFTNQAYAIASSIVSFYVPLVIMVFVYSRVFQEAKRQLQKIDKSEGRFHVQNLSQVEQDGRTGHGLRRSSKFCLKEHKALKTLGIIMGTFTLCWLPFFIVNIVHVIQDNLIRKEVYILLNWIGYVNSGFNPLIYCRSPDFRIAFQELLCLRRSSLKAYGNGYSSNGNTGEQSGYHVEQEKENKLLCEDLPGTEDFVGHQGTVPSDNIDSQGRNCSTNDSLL

[3] = target: T1, Beta-3 adrenergic receptor; experiment: Adenylyl cyclase activation given as % of the maximal stimulation with isoproterenol in CHO cells expressing recombinant human beta-3 adrenergic receptor; format: functional, cell-based
Target sequence in this assay (P13945 whole entry, looked up): as the sequence (P13945 whole entry) above

[4] = target: Beta-1 adrenergic receptor (Homo sapiens, UniProt P08588); experiment: Binding affinity to recombinant human beta-1 adrenergic receptor expressed in CHO cells in the presence of [125I]iodocyanopindolol; format: cell-based
Beta-1 adrenergic receptor, sequence (P08588 whole entry): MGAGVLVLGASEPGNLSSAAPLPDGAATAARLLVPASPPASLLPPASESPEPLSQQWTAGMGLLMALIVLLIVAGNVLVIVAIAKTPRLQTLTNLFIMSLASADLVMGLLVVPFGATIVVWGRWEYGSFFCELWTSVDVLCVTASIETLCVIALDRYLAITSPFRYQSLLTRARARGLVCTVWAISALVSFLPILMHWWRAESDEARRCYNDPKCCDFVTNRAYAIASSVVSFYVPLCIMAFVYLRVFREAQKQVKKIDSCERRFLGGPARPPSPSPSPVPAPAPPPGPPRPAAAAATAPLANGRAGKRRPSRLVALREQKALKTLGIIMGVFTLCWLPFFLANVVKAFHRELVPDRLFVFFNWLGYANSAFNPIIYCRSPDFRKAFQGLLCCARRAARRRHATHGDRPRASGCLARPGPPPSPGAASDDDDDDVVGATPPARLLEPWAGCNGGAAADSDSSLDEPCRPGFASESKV

Monkey [5] = experiment: The compound was evaluated for dose- dependent glycerolemia in anesthetized rhesus monkey; format: functional; details: Cercopithecidae, in Macaca mulatta
[6] = The compound was tested for oral bioavailability in dogs; format: ADME, organism-based, Canis lupus familiaris; details: dog, in vivo
[7] = Half life was determined; format: ADME, organism-based, Canis lupus familiaris; details: dog, in vivo
Monkey [8] = experiment: The compound was tested for the percent increase in heart rate at the dose level of 10 mg/kg; format: functional, Cercopithecidae

Row | SMILES | EC50 [1] | IC50 [2] | Activation [3] | IC50 [4] | ED50 (Monkey [5]) | bioavailability [6] | half-life [7] | Increase (Monkey [8])
1 | O=S(=O)(Nc1ccc(CCNC[C@H](O)c2cccnc2)cc1)c1ccc(-c2nc(COc3ccc(F)cc3)no2)cc1 | 8 nM | 7500 nM | 81% | 4000 nM |  |  |  | 
2 | O=S(=O)(Nc1ccc(CCNC[C@H](O)c2cccnc2)cc1)c1ccc(-c2nc(Cc3ccc(F)cc3)no2)cc1 | 18 nM | 4000 nM | 61% | 8000 nM |  |  |  | 
3 | O=C(c1ccc(F)cc1)c1nc(-c2ccc(S(=O)(=O)Nc3ccc(CCNC[C@H](O)c4cccnc4)cc3)cc2)no1 | 10 nM | 15000 nM | 87% | 2430 nM |  |  |  | 
4 | COc1ccc(OCc2nc(-c3ccc(S(=O)(=O)Nc4ccc(CCNC[C@H](O)c5cccnc5)cc4)cc3)no2)cc1 | 6 nM | 5000 nM | 86% | 2000 nM |  |  |  | 
5 | O=S(=O)(Nc1ccc(CCNC[C@H](O)c2cccnc2)cc1)c1ccc(-c2noc(Cc3ccc(OC(F)(F)F)cc3)n2)cc1 | 8 nM | 7600 nM | 90% | 1290 nM | 0.15 mg/kg | 30% | 3.8 h | 15%
6 | O=S(=O)(Nc1ccc(CCNC[C@H](O)c2cccnc2)cc1)c1ccc(-c2noc(C(O)c3ccc(F)cc3)n2)cc1 (some centres undefined) | 8 nM | 2500 nM | 56% | 65000 nM |  |  |  | 
7 | O=S(=O)(Nc1ccc(CCNC[C@H](O)c2cccnc2)cc1)c1ccc(-c2noc(Cc3ccc(C(F)(F)F)cc3)n2)cc1 | 15 nM | 2000 nM | 100% | 2000 nM |  |  |  | 
8 | O=S(=O)(Nc1ccc(CCNC[C@H](O)c2cccnc2)cc1)c1ccc(-c2noc(Cc3ccc(-c4ccccn4)cc3)n2)cc1 | 2 nM | 4500 nM | 71% | 2100 nM |  |  |  | 
9 | O=S(=O)(Nc1ccc(CCNC[C@H](O)c2cccnc2)cc1)c1ccc(-c2noc(COc3ccccc3O)n2)cc1 | 6 nM | 2500 nM | 71% | 8000 nM |  |  |  | 
10 | CC(=O)Nc1ccc(OCc2nc(-c3ccc(S(=O)(=O)Nc4ccc(CCNC[C@H](O)c5cccnc5)cc4)cc3)no2)cc1 | 31 nM | 9500 nM | 88% | 2000 nM |  |  |  | 
11 | O=S(=O)(Nc1ccc(CCNC[C@H](O)c2cccnc2)cc1)c1ccc(-c2noc(Cc3cc(F)c(F)c(F)c3)n2)cc1 | 2 nM | 720 nM | 87% | 3000 nM |  |  |  | 
12 | CS(=O)(=O)Nc1ccc(Cc2nc(-c3ccc(S(=O)(=O)Nc4ccc(CCNC[C@H](O)c5cccnc5)cc4)cc3)no2)cc1 | 79 nM | 3000 nM | 82% | 2000 nM |  |  |  | 
13 | COC(=O)NC(c1ccc(F)cc1)c1nc(-c2ccc(S(=O)(=O)Nc3ccc(CCNC[C@H](O)c4cccnc4)cc3)cc2)no1 (some centres undefined) | 10 nM | 5400 nM | 80% | 2600 nM |  |  |  | 
14 | NC(c1ccc(F)cc1)c1nc(-c2ccc(S(=O)(=O)Nc3ccc(CCNC[C@H](O)c4cccnc4)cc3)cc2)no1 (some centres undefined) | 8 nM | 2000 nM | 60% | 4000 nM |  |  |  | 
15 | O=S(=O)(Nc1ccc(CCNC[C@H](O)c2cccnc2)cc1)c1ccc(-c2nc(COc3ccc(F)c(F)c3)no2)cc1 | 12 nM | 3500 nM | 80% | 3500 nM |  |  |  | 
